Results taken from patent US8653100B2 (AbbVie Inc., priority 2008, dated 2014).
Counter-ions that a name gives are not always drawn. Like-named read-outs stand apart in the source and are kept apart here.

Legend:
human GlyT1c transporter = human GlyT1c transporter (Homo sapiens (Human), UniProt P48067); assay: Radioligand binding assay using recombinant CHO cell membranes expressing human GlyT1; conditions: read-out: radioligand binding Kiapp
Outline: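 Apparent Ki values were derived by Cheng-Prusoff from one-site IC50 fits of displacement curves. Membranes from recombinant CHO cells (human GlyT1c, 50 μg/ml) were incubated 1 h at room temperature with 0.5 nM [^3H]-(R)-NPTS and test compound (1% DMSO, pH 7.5 buffer), with 10 μM Org24598 for non-specific binding, then filtered and counted.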

human GlyT1c = human GlyT1c (Homo sapiens (Human), UniProt P48067); assay: [3H]-Glycine uptake into recombinant CHO cells expressing human GlyT1; format: cell-based; conditions: hGlyT1c_5_CHO cells, 200 nM [3H]-glycine
human GlyT1c, sequence (P48067 whole entry): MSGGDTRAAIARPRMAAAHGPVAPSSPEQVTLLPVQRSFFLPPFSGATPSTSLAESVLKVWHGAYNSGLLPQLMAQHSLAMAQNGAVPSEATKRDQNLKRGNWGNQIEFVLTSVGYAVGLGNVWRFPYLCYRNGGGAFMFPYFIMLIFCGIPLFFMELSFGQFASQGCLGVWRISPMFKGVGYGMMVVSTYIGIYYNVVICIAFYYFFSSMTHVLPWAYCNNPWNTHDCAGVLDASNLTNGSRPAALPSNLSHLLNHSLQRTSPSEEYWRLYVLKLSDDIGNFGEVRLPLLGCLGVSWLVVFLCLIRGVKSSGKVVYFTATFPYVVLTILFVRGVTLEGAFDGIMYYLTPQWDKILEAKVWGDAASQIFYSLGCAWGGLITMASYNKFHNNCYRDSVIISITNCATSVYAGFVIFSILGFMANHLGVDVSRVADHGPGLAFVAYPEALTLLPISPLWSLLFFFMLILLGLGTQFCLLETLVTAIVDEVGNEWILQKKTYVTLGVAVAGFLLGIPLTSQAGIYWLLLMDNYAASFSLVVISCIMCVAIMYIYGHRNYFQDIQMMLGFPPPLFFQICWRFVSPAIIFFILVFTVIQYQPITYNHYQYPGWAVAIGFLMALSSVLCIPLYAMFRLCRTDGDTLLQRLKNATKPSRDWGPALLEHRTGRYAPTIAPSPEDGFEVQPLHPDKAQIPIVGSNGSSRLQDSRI
Description: [^3H]-Glycine uptake into recombinant CHO cells expressing human GlyT1: Human GlyT1c expressing recombinant hGlyT1c—5_CHO cells were plated at 20,000 cells per well in 96 well Cytostar-T scintillation microplates (Amersham Biosciences) and cultured to sub-confluency for 24 h. […] The plates were placed in a Wallac Microbeta (PerkinElmer) and continuously counted by solid phase scintillation spectrometry during up to 3 hours. […] IC50 calculations were made by four-parametric logistic nonlinear regression analysis (GraphPad Prism) using determinations within the range of linear increase of [^3H]-glycine incorporation between 60 and 120 min.

[1] = radioligand [3H]-(R)-NPTS (examples 1-19, 22-52, 54-87)
[2] = examples 88-204, radioligand not specified by footnote

human GlyT1c transporter, sequence (P48067 whole entry): as above

| Compound | Ki (human GlyT1c transporter; [1]) | IC50 (human GlyT1c) | Ki (human GlyT1c transporter; [2]) |
| --- | --- | --- | --- |
| O=S(=O)(NCCOc1cc2c(cc1F)CCNC2C1(c2ccc(Cl)cc2)CCC1)c1cccnc1 (stereo not drawn) [Example 14, Pyridine-3-sulfonic acid (2-{1-[1-(4-chloro-phenyl)-cyclobutyl]-6-fluoro-1,2,3,4-tetrahydro-isoquinolin-7-yloxy}-ethyl)-amide hydrochloride] | ≤ 0.1 µM | ≤ 0.1 µM | – |
| CCNCCCS(=O)(=O)NCCOc1ccc2c(c1)C(C1(c3ccc(Cl)cc3)CCC1)NCC2 (stereo not drawn) [Example 187, N-[2-({1-[1-(4-Chlorophenyl)cyclobutyl]-1,2,3,4-tetrahydroisoquinolin-7-yl}oxy)ethyl]-3-(ethylamino)propane-1-sulfonamide] | – | ≤ 10 µM | ≤ 10 µM |
| CCCS(=O)(=O)NCCOc1ccc2c(c1)C(C(C)c1ccc(Cl)cc1)NCC2 (stereo not drawn) [Example 145, N-[2-({1-[1-(4-Chlorophenyl)ethyl]-1,2,3,4-tetrahydroisoquinolin-7-yl}oxy)ethyl]propane-1-sulfonamide hydrochloride] | – | ≤ 0.1 µM | ≤ 0.1 µM |
| CCCS(=O)(=O)NCCOc1cc2c(cc1F)CCNC2C1(c2ccc(Cl)cc2)CCC1 (stereo not drawn) [Example 15, Propane-1-sulfonic acid (2-{1-[1-(4-chloro-phenyl)-cyclobutyl]-6-fluoro-1,2,3,4-tetrahydro-isoquinolin-7-yloxy}-ethyl)-amide hydrochloride] | ≤ 0.1 µM | ≤ 0.1 µM | – |
| CC(C)NS(=O)(=O)CCCOc1ccc2c(c1)C(C1(c3ccc(Cl)cc3)CCC1)NCC2 (stereo not drawn) [Example 117, 3-({1-[1-(4-Chlorophenyl)cyclobutyl]-1,2,3,4-tetrahydroisoquinolin-7-yl}oxy)-N-(propan-2-yl)propane-1-sulfonamide hydrochloride] | – | ≤ 10 µM | ≤ 1 µM |
| CCCS(=O)(=O)N1CCN(c2cc3c(cc2OC)C(C2(c4ccc(Cl)cc4)CCC2)N(S(=O)(=O)CCC)CC3)CC1 (stereo not drawn) [Example 84, 1-[1-(4-Chlorophenyl)cyclobutyl]-7-methoxy-2-(propylsulfonyl)-6-[4-(propylsulfonyl)-piperazin-1-yl]-1,2,3,4-tetrahydroisoquinoline] | ≤ 10 µM | ≤ 100 µM | – |
| COCCNS(=O)(=O)CCCOc1ccc2c(c1)C(C1(c3ccc(Cl)cc3)CCC1)NCC2 (stereo not drawn) [Example 135, 3-({1-[1-(4-Chlorophenyl)cyclobutyl]-1,2,3,4-tetrahydroisoquinolin-7-yl}oxy)-N-(2-methoxyethyl)propane-1-sulfonamide hydrochloride] | – | ≤ 100 µM | ≤ 10 µM |
| O=C(NCCOc1ccc2c(c1)C(C1(c3ccc(Cl)cc3)CCC1)NCC2)c1ccc(Cl)cc1Cl (stereo not drawn) [Example 1, 2,4-Dichloro-N-(2-{1-[1-(4-chloro-phenyl)-cyclobutyl]-1,2,3,4-tetrahydro-isoquinolin-7-yloxy}-ethyl)-benzamide] | ≤ 10 µM | ≤ 10 µM | – |
| Cn1cc(S(=O)(=O)NCCOc2ccc3c(c2)C(C2(c4ccc(Cl)cc4)CCC2)NCC3)cn1 (stereo not drawn) [Example 37, 1-Methyl-1H-pyrazole-4-sulfonic acid (2-{1-[1-(4-chloro-phenyl)-cyclobutyl]-1,2,3,4-tetrahydro-isoquinolin-7-yloxy}-ethyl)-amide hydrochloride] | – | ≤ 0.1 µM | – |
| CCCS(=O)(=O)NCCOc1ccc2c(c1)C(C1(c3ccc(Cl)cc3)CC(F)(F)C1)NCC2 (stereo not drawn) [Example 44, Propane-1-sulfonic acid (2-{1-[1-(4-chloro-phenyl)-3,3-difluoro-cyclobutyl]-1,2,3,4-tetrahydro-isoquinolin-7-yloxy}-ethyl)-amide hydrochloride] | – | ≤ 0.1 µM | – |
| CCN(CC)S(=O)(=O)NCCOc1ccc2c(c1)C(C1(c3ccc(Cl)cc3)CCC1)NCC2(C)C (stereo not drawn) [Example 69, N′-[2-({1-[1-(4-Chlorophenyl)cyclobutyl]-4,4-dimethyl-1,2,3,4-tetrahydroisoquinolin-7-yl}oxy)ethyl]-N,N-diethylsulfuric diamide hydrochloride] | – | ≤ 1 µM | – |
| CCCS(=O)(=O)NCCOc1ccc2c(c1)C(C1(c3ccccc3)CCC1)NCC2 (stereo not drawn) [Example 50, 1-(1-Phenylcyclobutyl)-7-(2-(propylsulfonamido)ethoxy)-1,2,3,4-tetrahydroisoquinolinium chloride] | – | ≤ 0.1 µM | – |
| CCCS(=O)(=O)NCCOc1ccc2c(c1)C(C1(c3cccc(Cl)c3)CCC1)N(CC#N)CC2 (stereo not drawn) [Example 77, N-[2-({1-[1-(3-Chlorophenyl)cyclobutyl]-2-(cyanomethyl)-1,2,3,4-tetrahydroisoquinolin-7-yl}oxy)ethyl]propane-1-sulfonamide] | – | ≤ 1 µM | – |

Results, then the compound that gave them:

| Ki (human GlyT1c transporter; [1]) | IC50 (human GlyT1c) | Ki (human GlyT1c transporter; [2]) | Compound |
| --- | --- | --- | --- |
| ≤ 10 µM | ≤ 10 µM | – | O=S(=O)(NCCOc1ccc2c(c1)C(C1(c3ccc(Cl)cc3)CCC1)NCC2)C(F)(F)F (stereo not drawn) [Example 11, N-(2-{1-[1-(4-Chloro-phenyl)-cyclobutyl]-1,2,3,4-tetrahydro-isoquinolin-7-yloxy}-ethyl)-C,C,C-trifluoro-methanesulfonamide] |
| ≤ 1 µM | ≤ 1 µM | – | O=S(=O)(NCCOc1cc2c(cc1F)CCNC2C1(c2ccc(Cl)cc2)CCC1)c1ccccc1 (stereo not drawn) [Example 13, N-(2-{1-[1-(4-Chloro-phenyl)-cyclobutyl]-6-fluoro-1,2,3,4-tetrahydro-isoquinolin-7-yloxy}-ethyl)-benzenesulfonamide hydrochloride] |
| ≤ 0.1 µM | ≤ 0.1 µM | – | O=S(=O)(NCCOc1ccc2c(c1)C(C1(c3ccc(Cl)cc3)CCC1)NCC2)C1CC1 (stereo not drawn) [Example 28, Cyclopropanesulfonic acid (2-{1-[1-(4-chloro-phenyl)-cyclobutyl]-1,2,3,4-tetrahydro-isoquinolin-7-yloxy}-ethyl)-amide hydrochloride] |
| ≤ 1 µM | ≤ 1 µM | – | COc1ccc(S(=O)(=O)NCCOc2ccc3c(c2)C(C2(c4ccc(Cl)cc4)CCC2)NCC3)cc1 (stereo not drawn) [Example 31, N-(2-{1-[1-(4-Chloro-phenyl)-cyclobutyl]-1,2,3,4-tetrahydro-isoquinolin-7-yloxy}-ethyl)-4-methoxy-benzenesulfonamide hydrochloride] |
| ≤ 1 µM | ≤ 1 µM | – | O=S(=O)(NCCOc1ccc2c(c1)C(C1(c3ccc(Cl)cc3)CCC1)NCC2)c1ccccc1Cl (stereo not drawn) [Example 25, 2-Chloro-N-(2-{1-[1-(4-chloro-phenyl)-cyclobutyl]-1,2,3,4-tetrahydro-isoquinolin-7-yloxy}-ethyl)-benzenesulfonamide hydrochloride] |
| – | ≤ 10 µM | ≤ 0.1 µM | NCCS(=O)(=O)NCCOc1ccc2c(c1)C(C1(c3ccc(Cl)cc3)CCC1)NCC2 (single isomer, unassigned) [Example 152, 2-Amino-N-[2-({1-[1-(4-Chlorophenyl)cyclobutyl]-1,2,3,4-tetrahydroisoquinolin-7-yl}oxy)ethyl]ethanesulfonamide dihydrochloride] |
| ≤ 10 µM | ≤ 1 µM | – | O=S(=O)(NCCOc1ccc2c(c1)C(C1(c3ccc(Cl)cc3)CCC1)NCC2)c1cccc2cccnc12 (stereo not drawn) [Example 30, Quinoline-8-sulfonic acid (2-{1-[1-(4-chloro-phenyl)-cyclobutyl]-1,2,3,4-tetrahydro-isoquinolin-7-yloxy}-ethyl)-amide hydrochloride] |
| ≤ 10 µM | ≤ 1 µM | – | O=S(=O)(NCCOc1ccc2c(c1)C(C1(c3ccc(Cl)cc3)CCC1)NCC2)c1cccc(Cl)c1 (stereo not drawn) [Example 26, 3-Chloro-N-(2-{1-[1-(4-chloro-phenyl)-cyclobutyl]-1,2,3,4-tetrahydro-isoquinolin-7-yloxy}-ethyl)-benzenesulfonamide hydrochloride] |
| ≤ 10 µM | ≤ 10 µM | – | O=S(=O)(Cc1ccccc1)NCCOc1ccc2c(c1)C(C1(c3ccc(Cl)cc3)CCC1)NCC2 (stereo not drawn) [Example 32, N-(2-{1-[1-(4-Chloro-phenyl)-cyclobutyl]-1,2,3,4-tetrahydro-isoquinolin-7-yloxy}-ethyl)-C-phenyl-methanesulfonamide hydrochloride] |
| – | ≤ 10 µM | ≤ 1 µM | O=S(=O)(CCCOc1ccc2c(c1)C(C1(c3ccc(Cl)cc3)CCC1)NCC2)Nc1ccccc1 (stereo not drawn) [Example 112, 3-({1-[1-(4-Chlorophenyl)cyclobutyl]-1,2,3,4-tetrahydroisoquinolin-7-yl}oxy)-N-phenylpropane-1-sulfonamide hydrochloride] |
| – | ≤ 0.1 µM | – | O=S(=O)(NCCOc1ccc2c(c1)C(C1(c3ccc(Cl)cc3)CCC1)NCC2)c1c[nH]cn1 (stereo not drawn) [Example 57, N-(2-(1-(1-(4-Chlorophenyl)cyclobutyl)-1,2,3,4-tetrahydroisoquinolin-7-yloxy)ethyl)-1H-imidazole-4-sulfonamide hydrochloride] |
| – | ≤ 10 µM | – | O=C(NCCOc1ccc2c(c1)C(C1(c3ccc(Cl)cc3)CCC1)NCC2)c1ccccc1 (stereo not drawn) [Example 3, N-(2-{1-[1-(4-Chloro-phenyl)-cyclobutyl]-1,2,3,4-tetrahydro-isoquinolin-7-yloxy}-ethyl)-benzamide] |
| – | ≤ 10 µM | – | O=C(NCCOc1ccc2c(c1)C(C1(c3ccc(Cl)cc3)CCC1)NCC2)Nc1ccccc1 (stereo not drawn) [Example 34, hydrochloride] |
| – | ≤ 0.1 µM | – | O=S(=O)(NCCOc1ccc2c(c1)C(C1(c3ccc(F)cc3)CCC1)NCC2)c1cccnc1 (stereo not drawn) [Example 66, N-[2-({1-[1-(4-Fluorophenyl)cyclobutyl]-1,2,3,4-tetrahydroisoquinolin-7-yl}oxy)ethyl]pyridine-3-sulfonamide hydrochloride] |
